Experimental data taken from patent US7138361B2, “Herbicidal heterocycles” (E. I. du Pont de Nemours and Company, priority 2000, dated 2006).

Columns and labels:
Assay type in all cases: in vivo
[1] = test system: Sunflower; test: Test C preemergence; settings: scale 0 to 100, 0 no effect, 100 complete control
[2] = test system: cocklebur (Xanthium strumarium); test: Test C postemergence
In short: (§1)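 Pre- and postemergence treatments used a non-phytotoxic solvent/surfactant formulation; post-treated plants measured 2 to 18 cm. Greenhouse hold 12–14 d; % control estimated visually relative to controls.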

[3] = test system: corn (Zea mays); test: Test C postemergence
In short: as §1

[4] = test system: crabgrass (Digitaria sanguinalis); test: Test C postemergence
In short: as §1

[5] = test system: rice (Oryza saliva); test: Test C flooded paddy test; settings: for Rice plant response rating: Flooded Paddy, scale 0 to 100, 0 no effect, 100 complete control; for Plant response rating, Rice / Plant response rating (scale 0 to 100), Rice: flooded paddy test; for Plant response rating, Rice: scale 0 to 100 (0 no effect, 100 complete control)
In short: (§2)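 2-leaf-stage plants, flooded paddy; treated; greenhouse 12–14 days; compared with controls by eye; rated 0–100 (0 none, 100 complete control).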

[6] = test system: smallflower flatsedge (Cyperus difformis); test: Test C flooded paddy test; settings: for Flatsedge plant response rating: Flooded Paddy, scale 0 to 100, 0 no effect, 100 complete control; for Plant response rating, Flatsedge / Plant response rating (scale 0 to 100), Flatsedge: flooded paddy test; for Plant response rating, Flatsedge: scale 0 to 100 (0 no effect, 100 complete control)
In short: as §2

[7] = test system: barnyardgrass (Echinochloa crus-galli); test: Test C flooded paddy test; settings: for Barnyardgrass plant response rating: Flooded Paddy, scale 0 to 100, 0 no effect, 100 complete control; for Plant response rating, Barnyardgrass / Plant response rating (scale 0 to 100), Barnyardgrass: flooded paddy test; for Plant response rating, Barnyardgrass: scale 0 to 100 (0 no effect, 100 complete control)
In short: as §2

[8] = test system: duck salad (Heteranthera limosa); test: Test C flooded paddy test; settings: for Ducksalad plant response rating: Flooded Paddy, scale 0 to 100, 0 no effect, 100 complete control; for Plant response rating, Ducksalad / Plant response rating (scale 0 to 100), Ducksalad: flooded paddy test; for Plant response rating, Ducksalad: scale 0 to 100 (0 no effect, 100 complete control)
In short: as §2

[9] = test system: Nightshade; test: Test C preemergence; settings: visual evaluation after 12 to 14 days
[10] = test system: Sunflower; test: Test C preemergence; settings: scale 0 to 100
[11] = Rate 125 g/ha, scale 0 to 100, 0 no effect, 100 complete control
[12] = Rate 250 g/ha, scale 0 to 100 (0 no effect, 100 complete control)
[13] = Rate 500 g/ha, scale 0 to 100 (0 no effect, 100 complete control)
[14] = Rate 16 g/ha, visually evaluated after 12 to 14 days, 0 = no effect, 100 = complete control
[15] = under head Rate 16 g/ha, (own rate not given), after 12 to 14 days

What does the source list for `COc1cc(N2CCC(n3ccc(C(C)C)n3)C2=O)ccc1C` (stereo not drawn) [Compound 85]?
Plant response rating, Sunflower ([1]; Rate 250 g/ha): 70; Plant response rating, Cocklebur ([2]; Rate 62 g/ha, scale 0 to 100): 40; Plant response rating, Cocklebur [2, 11]: 70; Plant response rating, Cocklebur [2, 12]: 90; Plant response rating, Cocklebur [2, 13]: 90; Plant response rating, Corn ([3]; Rate 62 g/ha, scale 0 to 100): 50; Plant response rating, Corn [3, 11]: 50; Plant response rating, Corn [3, 12]: 50; Plant response rating, Corn [3, 13]: 60; Plant response rating, Crabgrass ([4]; Rate 62 g/ha, scale 0 to 100): 30; Plant response rating, Crabgrass [4, 11]: 30; Plant response rating, Crabgrass [4, 12]: 40; Plant response rating, Crabgrass [4, 13]: 70; Rice plant response rating ([5]; Rate 250 g/ha): 80; Rice plant response rating ([5]; Rate 500 g/ha): 100; Plant response rating, Rice ([5]; Rate 62 g/ha): 30; Plant response rating, Rice ([5]; Rate 125 g/ha): 60; Flatsedge plant response rating ([6]; Rate 250 g/ha): 100; Flatsedge plant response rating ([6]; Rate 500 g/ha): 100; Plant response rating, Flatsedge ([6]; Rate 62 g/ha): 90; Plant response rating, Flatsedge ([6]; Rate 125 g/ha): 100; Barnyardgrass plant response rating ([7]; Rate 250 g/ha): 100; Barnyardgrass plant response rating ([7]; Rate 500 g/ha): 100; Plant response rating, Barnyardgrass ([7]; Rate 62 g/ha): 40; Plant response rating, Barnyardgrass ([7]; Rate 125 g/ha): 90; Ducksalad plant response rating ([8]; Rate 250 g/ha): 100; Ducksalad plant response rating ([8]; Rate 500 g/ha): 100; Plant response rating, Ducksalad ([8]; Rate 62 g/ha): 90; Plant response rating, Ducksalad ([8]; Rate 125 g/ha): 100; Plant response rating (0 to 100), Nightshade ([9]; Rate 500 g/ha): 100; Plant response rating, Sunflower ([10]; Rate 62 g/ha): 40

For `CC(C)(C)c1ccn(C2SCN(c3cccc(OC(F)F)c3)C2=O)n1` (stereo not drawn) [Compound 36], which “Plant response rating, Sunflower” value ([1]; Rate 125 g/ha) is on record?
The value was 0.

And the “Plant response rating, Cocklebur” value ([2]; Rate 31 g/ha, scale 0 to 100)?
The value was 0.

What about the “Plant response rating, Cocklebur” value [2, 11] of the same compound?
The value was 0.

What about the “Plant response rating, Cocklebur” value [2, 12] of the same compound?
Its value is 0.

And the “Plant response rating, Corn” value ([3]; Rate 31 g/ha, scale 0 to 100)?
Its value is 0.

What about the “Plant response rating, Corn” value [3, 11] of the same compound?
Its value is 0.

And the “Plant response rating, Corn” value [3, 12]?
The value was 20.

And the “Plant response rating, Crabgrass” value ([4]; Rate 31 g/ha, scale 0 to 100)?
Its value is 0.

What about the “Plant response rating, Crabgrass” value [4, 11] of the same compound?
The value was 0.

What about the “Plant response rating, Crabgrass” value [4, 12] of the same compound?
The value was 30.

And the “Rice plant response rating” value ([5]; Rate 250 g/ha)?
The value was 90.

And the “Rice plant response rating” value ([5]; Rate 500 g/ha)?
Its value is 90.

And the “Plant response rating, Rice” value ([5]; Rate 62 g/ha)?
The value was 30.

And the “Plant response rating, Rice” value ([5]; Rate 125 g/ha)?
Its value is 80.

And the “Flatsedge plant response rating” value ([6]; Rate 250 g/ha)?
The value was 100.

And the “Flatsedge plant response rating” value ([6]; Rate 500 g/ha)?
The value was 100.

And the “Plant response rating, Flatsedge” value ([6]; Rate 62 g/ha)?
The value was 100.

And the “Plant response rating, Flatsedge” value ([6]; Rate 125 g/ha)?
The value was 100.

What about the “Barnyardgrass plant response rating” value ([7]; Rate 250 g/ha) of the same compound?
The value was 100.

And the “Barnyardgrass plant response rating” value ([7]; Rate 500 g/ha)?
The value was 100.

And the “Plant response rating, Barnyardgrass” value ([7]; Rate 62 g/ha)?
Its value is 100.

What about the “Plant response rating, Barnyardgrass” value ([7]; Rate 125 g/ha) of the same compound?
Its value is 100.

What about the “Ducksalad plant response rating” value ([8]; Rate 250 g/ha) of the same compound?
The value was 100.

What about the “Ducksalad plant response rating” value ([8]; Rate 500 g/ha) of the same compound?
Its value is 100.

What about the “Plant response rating, Ducksalad” value ([8]; Rate 62 g/ha) of the same compound?
Its value is 80.

And the “Plant response rating, Ducksalad” value ([8]; Rate 125 g/ha)?
The value was 90.

What about the “Plant response rating (0 to 100), Nightshade” value ([9]; Rate 250 g/ha) of the same compound?
Its value is 90.

And the “Plant response rating, Sunflower” value ([10]; Rate 31 g/ha)?
The value was 0.

Which results are given for `COc1cc(N2CCC(n3ccc(C(C)C)n3)C2=O)ccc1Cl` (stereo not drawn) [Compound 120]?
Plant response rating, Sunflower ([1]; Rate 250 g/ha): 100; Plant response rating, Cocklebur ([2]; Rate 62 g/ha, scale 0 to 100): 0; Plant response rating, Cocklebur [2, 12]: 80; Plant response rating, Cocklebur [2, 13]: 90; Plant response rating, Corn ([3]; Rate 62 g/ha, scale 0 to 100): 30; Plant response rating, Corn [3, 12]: 30; Plant response rating, Corn [3, 13]: 50; Plant response rating, Corn ([3]; scale 0 to 100): 30; Plant response rating, Crabgrass ([4]; Rate 62 g/ha, scale 0 to 100): 0; Plant response rating, Crabgrass [4, 12]: 40; Plant response rating, Crabgrass [4, 13]: 90; Rice plant response rating ([5]; Rate 250 g/ha): 30; Rice plant response rating ([5]; Rate 500 g/ha): 80; Plant response rating, Rice ([5]; Rate 62 g/ha): 0; Plant response rating, Rice ([5]; Rate 125 g/ha): 20; Flatsedge plant response rating ([6]; Rate 250 g/ha): 100; Flatsedge plant response rating ([6]; Rate 500 g/ha): 100; Plant response rating, Flatsedge ([6]; Rate 62 g/ha): 90; Plant response rating, Flatsedge ([6]; Rate 125 g/ha): 100; Barnyardgrass plant response rating ([7]; Rate 250 g/ha): 80; Plant response rating, Barnyardgrass ([7]; Rate 62 g/ha): 20; Plant response rating, Barnyardgrass ([7]; Rate 125 g/ha): 50; Ducksalad plant response rating ([8]; Rate 250 g/ha): 100; Ducksalad plant response rating ([8]; Rate 500 g/ha): 100; Plant response rating, Ducksalad ([8]; Rate 62 g/ha): 70; Plant response rating, Ducksalad ([8]; Rate 125 g/ha): 100; Plant response rating (0 to 100), Nightshade ([9]; Rate 500 g/ha): 100; Plant response rating, Sunflower ([10]; Rate 62 g/ha): 60

Which “Plant response rating, Sunflower” value ([1]; Rate 250 g/ha) does the source give for `CCCC(C)c1ccn(C2OCN(c3cccc(OC(F)(F)F)c3)C2=O)n1` (stereo not drawn) [Compound 91] here?
Its value is 0.

What about the “Plant response rating, Cocklebur” value ([2]; Rate 62 g/ha, scale 0 to 100) of the same compound?
Its value is 0.

And the “Plant response rating, Cocklebur” value [2, 11]?
Its value is 0.

And the “Plant response rating, Cocklebur” value [2, 12]?
The value was 0.

And the “Plant response rating, Cocklebur” value [2, 13]?
Its value is 20.

What about the “Plant response rating, Corn” value ([3]; Rate 62 g/ha, scale 0 to 100) of the same compound?
The value was 0.

What about the “Plant response rating, Corn” value [3, 11] of the same compound?
The value was 0.

What about the “Plant response rating, Corn” value [3, 12] of the same compound?
The value was 0.

What about the “Plant response rating, Corn” value [3, 13] of the same compound?
The value was 0.

What about the “Plant response rating, Crabgrass” value ([4]; Rate 62 g/ha, scale 0 to 100) of the same compound?
The value was 20.

What about the “Plant response rating, Crabgrass” value [4, 11] of the same compound?
Its value is 20.

And the “Plant response rating, Crabgrass” value [4, 12]?
The value was 30.

What about the “Plant response rating, Crabgrass” value [4, 13] of the same compound?
Its value is 60.

And the “Rice plant response rating” value ([5]; Rate 250 g/ha)?
The value was 20.

What about the “Rice plant response rating” value ([5]; Rate 500 g/ha) of the same compound?
Its value is 40.

What about the “Plant response rating, Rice” value ([5]; Rate 62 g/ha) of the same compound?
The value was 0.

What about the “Plant response rating, Rice” value ([5]; Rate 125 g/ha) of the same compound?
Its value is 20.

What about the “Plant response rating (scale 0 to 100), Rice” value [5, 14] of the same compound?
The value was 0.

What about the “Plant response rating (scale 0 to 100), Rice” value [5, 15] of the same compound?
The value was 0.

And the “Flatsedge plant response rating” value ([6]; Rate 250 g/ha)?
Its value is 100.

What about the “Flatsedge plant response rating” value ([6]; Rate 500 g/ha) of the same compound?
The value was 100.

What about the “Plant response rating, Flatsedge” value ([6]; Rate 62 g/ha) of the same compound?
The value was 0.

And the “Plant response rating, Flatsedge” value ([6]; Rate 125 g/ha)?
Its value is 70.

What about the “Plant response rating (scale 0 to 100), Flatsedge” value [6, 14] of the same compound?
Its value is 0.

And the “Plant response rating (scale 0 to 100), Flatsedge” value [6, 15]?
The value was 0.

What about the “Barnyardgrass plant response rating” value ([7]; Rate 250 g/ha) of the same compound?
The value was 100.

And the “Barnyardgrass plant response rating” value ([7]; Rate 500 g/ha)?
Its value is 100.

What about the “Plant response rating, Barnyardgrass” value ([7]; Rate 62 g/ha) of the same compound?
The value was 0.

And the “Plant response rating, Barnyardgrass” value ([7]; Rate 125 g/ha)?
The value was 50.

What about the “Plant response rating (scale 0 to 100), Barnyardgrass” value [7, 14] of the same compound?
The value was 0.

And the “Plant response rating (scale 0 to 100), Barnyardgrass” value [7, 15]?
The value was 0.

What about the “Ducksalad plant response rating” value ([8]; Rate 250 g/ha) of the same compound?
The value was 90.

And the “Ducksalad plant response rating” value ([8]; Rate 500 g/ha)?
Its value is 70.

What about the “Plant response rating, Ducksalad” value ([8]; Rate 62 g/ha) of the same compound?
Its value is 80.

What about the “Plant response rating, Ducksalad” value ([8]; Rate 125 g/ha) of the same compound?
Its value is 0.

What about the “Plant response rating (scale 0 to 100), Ducksalad” value [8, 14] of the same compound?
The value was 0.

What about the “Plant response rating (scale 0 to 100), Ducksalad” value [8, 15] of the same compound?
The value was 0.

And the “Plant response rating (0 to 100), Nightshade” value ([9]; Rate 500 g/ha)?
The value was 10.

And the “Plant response rating, Sunflower” value ([10]; Rate 62 g/ha)?
Its value is 0.
